# Data published in article PMC3132048, “Treatment of experimental adjuvant arthritis with a novel folate receptor-targeted folic acid-aminopterin conjugate” (Arthritis Research & Therapy, 2011).
# Marks after values point to notes of the source that are not given here.
# Key:
# rat TG-macs = assay: Viability of thioglycollate-elicited peritoneal macrophages; assay type: cell-based; conditions: 72-hour incubation; no effect at concentrations as high as stated
# Description: Female Lewis rats (175 to 200 g) were purchased from Harlan Sprague Dawley (Indianapolis, IN, USA) and were allowed to acclimate for 1 week. To obtain peritoneal macrophages, rats were dosed intraperitoneally with an aged thioglycollate (TG) medium (20 ml/kg) and euthanized 3 days later. The peritoneal cavity of the animals was lavaged with 60 ml ice-cold phosphate-buffered saline to collect peritoneal exudate. The TG-elicited macrophages in the peritoneal fluids were obtained after a red cell lysing step and a 2-hour adherence in folate-free RPMI 1640 medium (Mediatech, Manassas, VA, USA) containing 1% heat-activated fetal calf serum and antibiotics. The purity of the resulting macrophage population (herein referred to as rat TG-macs) was determined to be ~90% pure based on CD11b/c expression (data not shown). […] Unless otherwise specified, all cells were maintained in the folate-free RPMI 1640 medium containing 10% heat-activated fetal calf serum and antibiotics (FFRPMI) under a 5% CO2 atmosphere.
# Unlike RAW264.7 cells, rat TG-macs display little proliferative activity ex vivo and therefore were used in our studies to represent inflammatory macrophages in a low proliferative state. […] LPS (5 μg/ml) and IFNγ (100 ng/ml) were then added to the treated cells 24 hours prior to the end of incubation to stimulate the release of cytokines/chemokines, which were then detected with a rat cytokine antibody array.
# [1] = target: T1, FRα (FRα-expressing KB cells) (Homo sapiens, UniProt P15328); assay: Relative affinity assay: displacement of [3H]FA from KB cells; assay type: binding; conditions: 37°C, competitor of [3H]FA, inverse molar ratio to displace 50%
# T1 construct: both KB cells and CHO-FRβ cells were used as the sources of FR; endogenous in cells; host or cells: KB cells
# Description: (§1) The relative affinities of EC0746, AMT, and MTX were determined according to a previously established method except that both KB cells and CHO-FRβ cells were used as the sources of FR [33]. KB cells are a human cancer cell line known for elevated expression of FRα. CHO-FRβ cells were obtained from Manohar Ratnam, Department of Biochemistry and Cancer Biology, The University of Toledo (Toledo, OH, USA). This cell line was originally generated by stable integration and amplification of a human FRβ cDNA expression construct in CHO-K1 cells.
# [2] = oral exposure, mice; cited from earlier work
# [3] = design: method as in PMID 10726889; conditions: rats, 0.1 mg/kg; cited from earlier work
# [4] = target: T2, human FRβ (CHO-FRβ cells) (Homo sapiens, UniProt P14207); assay: Relative affinity assay: displacement of [3H]FA from CHO-FRβ cells; assay type: binding; conditions: 37°C, competitor of [3H]FA, inverse molar ratio to displace 50%
# T2 construct: host or cells: CHO-K1 cells
# Description: as §1
# [5] = system: adjuvant-induced arthritis; assay: Rat adjuvant-induced arthritis (AIA) model; assay type: in vivo; conditions: for Body weight change (%): day 24 relative to day 10
# Description: The rats were then inoculated intradermally (at the base of tail) with 0.5 mg heat-killed M. butyricum (BD Diagnostic Systems) in 100 μl light mineral oil (Sigma-Aldrich, St Louis, MO, USA). […] For each study, two or three rats from the same colony were not induced for arthritis and were used as healthy controls.
# Unless noted otherwise, all drug treatments started on day 10 after arthritis induction and lasted for two consecutive weeks with biweekly (BIW, Mondays and Thursdays) or once-weekly (QW, Mondays) dosing regimens.
# EC0746 was given subcutaneously (s.c.) in a dosing range of 25 to 1,000 nmol/kg (QW or BIW); MTX was given s.c. or orally at 250 nmol/kg (BIW) or 1,650 nmol/kg (QW); and etanercept (10 mg/kg) was given s.c. once every 3 days for a 12-day span. The QW MTX dosing regimen was to mimic MTX administration in humans, and this particular dose of 1,650 nmol/kg per week (that is, 0.75 mg/kg per week) was reportedly active as an intraperitoneal agent in the AIA model. To distinguish the anti-inflammatory mechanisms of EC0746 and MTX in vivo, a therapeutically irrelevant folate-containing competitor (EC0923, molecular weight 672) was used in 500-fold molar excess to block the activities of EC0746 and MTX at 250 nmol/kg (BIW).
# Formalin-fixed hind paws were examined by a board-certified veterinary radiologist who had no knowledge of the study groups. Specific criteria were used to establish a numerical grade of severity for each radiographic change: increased soft tissue volume (0 to 4), narrowing or widening of joint spaces (0 to 5), subchondral erosion (0 to 3), periosteal reaction (0 to 4), osteolysis (0 to 4), subluxation (0 to 3), and degenerative joint changes (0 to 3). Scores are limited to the tarsus, and the maximum possible score per foot was 26 [39]. The histopathological analysis was also performed in a blind fashion by an independent contract laboratory (Bolder BioPATH Inc., Boulder, CO, USA). The arthritic ankles were scored on a scale of 0 to 5 for inflammation, bone resorption, pannus formation, and cartilage damage, with a maximal histology score of 20 per foot.
# [6] = system: TNFα production in RAW264.7 cells; assay: LPS-stimulated TNFα production (ELISA); assay type: cell-based, murine; conditions: RAW264.7 macrophages, data not shown
# Description: (§2) RAW264.7 cells in 96-well plates (3.5 × 10^4 cells/well) were treated with 10-fold serial dilutions of EC0746 (≤1 μM) in FFRPMI medium without and with 100-fold molar excess of FA. After a 2-hour exposure, the drug-containing media were replaced and the cells were allowed to incubate further for 70 hours (referred in the text as a 70-hour chase). In comparison, the cells were also treated continuously with AMT for 72 hours. Four hours prior to the end of incubation, LPS was added to the treated cells at a final concentration of 100 ng/ml. Then 100 μl culture supernatants were collected for TNFα analysis by ELISA. The cell viability was assessed by adding XTT to the remaining media for an additional 4 hours following the manufacturer's instructions. To evaluation of a cytostatic effect, RAW264.7 cells seeded at 1 × 10^6 cells/well in six-well plates were subjected to 2-hour exposure and a 70-hour chase with 0, 0.1, 10, and 1000 nM EC0746 without and with excess FA. At the end of the incubation (no LPS added), the surviving cells (that is, still viable cells) were recovered and redistributed in equal numbers in fresh medium for an additional 72 hours. The cell proliferation was again assessed by the XTT assay. All results were expressed as the percentage absorbance (minus background) relative to the untreated control cells.
# air-pouch inflammation = system: air-pouch inflammation; design: method as in PMID 16170572; conditions: murine air-pouch inflammation; cited from earlier work
# arthritis = system: arthritis; design: method as in PMID 16170572; conditions: murine arthritis; cited from earlier work
# [7] = Plasma pharmacokinetics after single subcutaneous dose; assay type: in vivo, rat; conditions: female, Lewis, rat, plasma, sc, after single s.c. dose of unconjugated AMT 500 nmol/kg
# Description: Female Lewis rats with jugular vein catheters (Harlan Sprague Dawley) were used to assess the plasma pharmacokinetics of EC0746 and unconjugated AMT. The animals were divided into two main groups, one given a single dose of EC0746 s.c. and the second a single dose of AMT s.c., both at 500 nmol/kg. Whole blood samples (300 μl) were collected from three animals per time point at the following time points: 1 minute, 10 minutes, 30 minutes, 1 hour, 2 hours, 3 hours, 4 hours, and 8 hours after injection. The blood samples were placed into anticoagulant tubes containing 1.7 mg/ml K3EDTA and 0.35 mg/ml N-maleoyl-β-alanine (0.35 mg/ml) in a 0.15% acetic acid solution. Plasma samples were obtained by centrifugation for 3 minutes at ~2,000 × g and stored at -80°C. The amounts of EC0746 and AMT in the plasma and the two primary metabolites of EC0746 (AMT and AMT hydrazide) were determined by liquid chromatography/mass spectrometry/mass spectrometry.
# RAW264.7 cells = assay type: cell-based, murine; conditions: RAW264.7 macrophages, data not shown
# Description: as §2
# [8] = Preliminary short-term toxicity / MTD in folate-deficient healthy rats; assay type: in vivo, rat; conditions: rat, in vivo, sc; healthy rats on folate-deficient diet, four s.c. doses in 2 weeks; read-out: Maximum tolerated dose (MTD)
# Description: The short-term toxicity and MTD of EC0746 and AMT were evaluated in healthy rats following the standard BIW subcutaneous dosing regimen used for efficacy studies. Further, these animals were put on a folate-deficient diet for ~20 days before treatment to match the folate deficiency status of AIA rats used for therapy. The folate-deficient but nonarthritic animals were thus given increasing doses of EC0746 and AMT for two consecutive weeks on a BIW basis. […] Standard hematologic and blood chemistry parameters were examined as needed along with histopathology.
# [9] = target: T3, dihydrofolate reductase (DHFR) (Mus musculus, UniProt P00375); assay: Dihydrofolate reductase inhibition assay in RAW264.7 whole cell lysates; assay type: cell-based, murine; conditions: FA alone 10 μM, 2-hour pulse, 22-hour chase
# T3 construct: endogenous in cells; host or cells: RAW264.7 cells (FR-positive subclone of ATCC TIB71)
# T3 sequence (P00375 1-187): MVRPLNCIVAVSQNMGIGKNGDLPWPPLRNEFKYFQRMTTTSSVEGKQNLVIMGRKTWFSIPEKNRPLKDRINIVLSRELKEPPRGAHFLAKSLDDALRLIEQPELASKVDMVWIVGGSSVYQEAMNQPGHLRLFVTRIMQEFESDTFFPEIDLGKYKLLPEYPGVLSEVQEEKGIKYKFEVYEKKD
# Description: RAW264.7 cells growing in FFRPMI medium in 10 cm cell culture dishes (BD Falcon, Lincoln Park, NJ, USA) were treated with EC0746 (100 nM), EC0746 (100 nM) plus 100-fold molar excess of FA (10 μM), or FA alone (10 μM). After a 2-hour exposure, the drug-containing media were replaced and the cells were allowed to incubate further for 22 hours in fresh FFRPMI medium (referred in the text as a 22-hour chase). Meanwhile, AMT and MTX were kept at 100 nM for the entire 24-hour incubation period. All cells were subsequently lysed in the radioimmunoprecipitation assay lysis buffer, and DHFR activities in the whole cell lysates were determined using a commercial DHFR assay kit (Sigma-Aldrich). This spectrophotometric assay monitors the enzymatic conversion of dihydrofolic acid to tetrahydrofolic acid by DHFR and the disappearance of the co-factor nicotinamide adenine dinucleotide phosphate at 340 nm. The results were normalized to the values of the untreated control cells.
# [10] = s.c., 1,650 nmol/kg once weekly
# [11] = s.c., 125 μmol/kg biweekly, alone
# [12] = s.c., 10 mg/kg on days 10, 13, 16, 19, 22
# T1 sequence (P15328 25-257): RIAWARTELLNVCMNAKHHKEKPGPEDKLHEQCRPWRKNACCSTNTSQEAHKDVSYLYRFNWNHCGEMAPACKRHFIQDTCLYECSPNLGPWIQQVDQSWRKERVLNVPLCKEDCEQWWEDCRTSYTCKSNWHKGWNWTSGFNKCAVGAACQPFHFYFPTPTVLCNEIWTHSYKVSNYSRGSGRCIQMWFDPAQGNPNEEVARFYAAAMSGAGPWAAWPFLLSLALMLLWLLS
# T2 sequence (P14207 17-255): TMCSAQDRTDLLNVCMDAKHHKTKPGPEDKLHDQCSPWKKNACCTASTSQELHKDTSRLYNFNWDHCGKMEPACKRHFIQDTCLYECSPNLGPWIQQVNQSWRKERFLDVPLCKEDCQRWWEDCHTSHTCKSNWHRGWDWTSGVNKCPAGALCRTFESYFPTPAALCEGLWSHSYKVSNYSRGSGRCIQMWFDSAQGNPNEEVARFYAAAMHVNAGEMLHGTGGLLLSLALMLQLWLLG
compound,measurement,setting,value
"CN(Cc1cnc2nc(N)nc(N)c2n1)c1ccc(C(=O)N[C@@H](CCC(=O)O)C(=O)O)cc1 [MTX, methotrexate, reference compound]",Concentration affecting TG-macs viability,rat TG-macs,> 10 µM
same,Relative affinity value (FA = 1),[1],0.018
same,Acute 50% lethal dose,[2],89 mg/kg
same,Oral bioavailability,[3],21%
same,Relative affinity value (FA = 1),[4],0.005
same,Decrease in summed histology score,"[5]; oral, 250 nmol/kg biweekly",73%
same,Reduction in dorsal to ventral paw thickness,"[5]; oral, 250 nmol/kg biweekly",63%
same,Weight loss due to disease progression,"[5]; oral, 1,650 nmol/kg (0.75 mg/kg) once weekly",~ 10%
same,Splenomegaly (percentage increase in spleen weight relative to healthy rats),"[5]; p.o., 250 nmol/kg biweekly from day 10",42 ± 17%
same,Inhibition in paw edema (%),"[5]; p.o., 250 nmol/kg biweekly from day 10, paw weight day 24",70 ± 5%
same,Body weight change (%),"[5]; p.o., 250 nmol/kg biweekly",-14 ± 2%
same,Inhibition in paw edema (%),"[5]; p.o., 1,650 nmol/kg once weekly, calculated based on arthritis scores on day 24",47 ± 10^f %
same,Body weight change (%),"[5]; p.o., 1,650 nmol/kg once weekly",-10 ± 2%
same,Splenomegaly (percentage increase in spleen weight relative to healthy rats),"[5]; s.c., 250 nmol/kg biweekly from day 10",24 ± 3%
same,Inhibition in paw edema (%),"[5]; s.c., 250 nmol/kg biweekly from day 10, paw weight day 24",78 ± 10%
same,Anti-arthritic activity in presence of EC0923 competitor,"[5]; s.c., 250 nmol/kg biweekly plus EC0923 125 μmol/kg, P > 0.05",not significantly blocked
same,Body weight change (%),"[5]; s.c., 250 nmol/kg biweekly",-2 ± 4%
same,Weight loss,[5]; [10],~ 7%
same,Inhibition in paw edema (%),"[5]; s.c., 1,650 nmol/kg once weekly, calculated based on arthritis scores on day 24",63 ± 13^f %
same,Body weight change (%),[5]; [10],-7 ± 8%
"Nc1nc2ncc(CNc3ccc(C(=O)N[C@@H](CCC(=O)N[C@H](CC(=O)O)C(=O)N[C@H](CC(=O)O)C(=O)O)C(=O)O)cc3)nc2c(=O)[nH]1 [EC0923, pteroyl-γGlu-d-Asp-d-Asp, reference compound]",Impact on development or severity of arthritis,[5]; [11],did not have any impact
same,Radiographic analysis of arthritic paws,[5]; [11],significant joint erosions
"Nc1nc(N)c2nc(CNc3ccc(C(=O)N[C@@H](CCC(=O)O)C(=O)O)cc3)cnc2n1 [AMT, aminopterin]","Potency in inhibition of LPS-stimulated TNFα production, AMT versus AMT hydrazide",[6],equally potent
same,Concentration affecting TG-macs viability,rat TG-macs,> 10 µM
same,Relative affinity value (FA = 1),[1],0.004
same,Acute 50% lethal dose,[2],3 mg/kg
same,Potency relative to MTX,air-pouch inflammation,~ 40 fold
same,Potency relative to MTX,arthritis,~ 20 fold
same,Tmax,"[7]; 500 nmol/kg, read-out: Time to maximum concentration (converted)",~0.5 h
same,AUC,[7]; read-out: Area under the curve (converted),1.02 µM·h
same,half-life,[7]; read-out: Elimination half-life,~2.33 h
same,Cmax,[7]; read-out: Maximum concentration in plasma,601 nM
same,Relative affinity value (FA = 1),[4],0.004
same,"Potency in inhibition of cell proliferation, AMT versus AMT hydrazide",RAW264.7 cells,equally potent
same,MTD at 2 weeks,[8],0.05 µmol/kg
same,Tolerability in AIA rats,"[5]; unmodified AMT mixed with FA (1:1), 500 nmol/kg s.c. biweekly, after one or two doses, severe anemia and gastrointestinal distress",all animals treated with the simple mixture had to be euthanized
Etanercept,Splenomegaly (percentage increase in spleen weight relative to healthy rats),"[5]; s.c., 10 mg/kg every 3 days",42 ± 7%
same,Inhibition in paw edema (%),"[5]; s.c., 10 mg/kg every 3 days, calculated based on arthritis scores on day 24",46 ± 9^f %
same,Body weight change (%),"[5]; s.c., 10 mg/kg every 3 days",-15 ± 2%
same,Decrease in summed histology score,[5]; [12],43%
same,Reduction in bone resorption (histology),[5]; [12],55%
same,Reduction in dorsal to ventral paw thickness,[5]; [12],40%
same,Reduction in inflammation (histology),[5]; [12],42%
"Nc1nc(=O)c2nc(CNc3ccc(C(=O)N[C@@H](CCC(=O)O)C(=O)O)cc3)cnc2[nH]1 [FA, folic acid]",Effect on DHFR activity of cells,[9],benign
